{"source": "patent US20210403567A1", "about": "“METHODS OF TREATING CERVICAL CANCER BY ADMINISTERING A PD-1 INHIBITOR” (priority 2020, published 2021)", "key": {"[1]": {"system": "recurrent or metastatic cervical cancer that has progressed after first-line platinum-based treatment"}, "[2]": {"system": "cervical cancer", "settings": "durable responses; cited from earlier work"}, "[3]": {"system": "recurrent or metastatic cervical cancer that has progressed after platinum-containing chemotherapy", "assay": "Phase 3 trial, cemiplimab 350 mg IV Q3W versus investigator's choice (IC) chemotherapy: OS, PFS, ORR, DOR;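 as to all read-outs here: randomized trial arms, OS counted from randomization until death with censoring at last contact, PFS until first RECIST 1.1 progression or death from any cause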", "settings": "for OS Hazard Ratio (95% CI): AC (non-SCC); for OS Hazard Ratio (95% CI) / OS subgroup analysis, Hazard Ratio (95% CI): cemiplimab vs chemotherapy; for Median OS (95% CI): Kaplan-Meier; for Reduced risk of death (vs. chemotherapy): post-hoc; for PFS: Number of events / PFS Hazard Ratio (95% CI) / Median PFS in month (95% CI) / PFS: Number of censored patients / PFS: Number of deaths / PFS: Progressive Disease / Reduced risk of progression (vs. chemotherapy): Example 3 analysis; for PFS Hazard Ratio (95% CI): cemiplimab vs chemo"}, "[4]": {"settings": "Grade 3-5, cemiplimab N=300, chemotherapy N=290"}, "[5]": {"settings": "any grade, cemiplimab N=300, chemotherapy N=290"}, "[6]": {"settings": "cemiplimab vs Gemcitabine (n = 108 vs 121)"}, "[7]": {"settings": "cemiplimab vs Irinotecan (n = 26 vs 19)"}, "[8]": {"settings": "cemiplimab vs Pemetrexed (n = 119 vs […])"}, "[9]": {"settings": "cemiplimab vs Topotecan (n = 20 vs 21)"}, "[10]": {"settings": "cemiplimab vs Vinorelbine (n = 31 vs 32)"}, "[11]": {"settings": "subgroup with IC chemotherapy selected prior to randomisation: Gemcitabine (n = 108 vs 121)"}, "[12]": {"settings": "subgroup with IC chemotherapy selected prior to randomisation: Irinotecan (n = 26 vs 19)"}, "[13]": {"settings": "AC, cemiplimab N=65, chemo N=66"}}, "note": "Several values for one entry are separate records, joined by “and”; a condition that tells them apart may be missing. Equal values may be shown once. Read-outs that look alike come from different tables or passages of the source.", "data": [{"substance": "cemiplimab", "values": [{"measurement": "Sponsor-identified immune-related AEs: Led to death", "setting": "[4]", "value": "0 n (%)"}, {"measurement": "Treatment-emergent AEs that led to death", "setting": "[4]", "value": "5 (1.7) n (%)"}, {"measurement": "Treatment-related AEs: Led to death", "setting": "[4]", "value": "0 n (%)"}, {"measurement": "Number of patients with any TEAE resulting in death", "setting": "[5]", "value": "5 n (%) and 5 (1.7) n (%)"}, {"measurement": "Sponsor-identified immune-related AEs: Led to death", "setting": "[5]", "value": "0 n (%)"}, {"measurement": "Treatment-related AEs: Led to death", "setting": "[5]", "value": "0 n (%)"}, {"measurement": "AEs observed, patients", "setting": "in vivo", "value": 88, "unit": "%"}, {"measurement": "Grade 3 or higher AEs, patients", "setting": "in vivo", "value": 45, "unit": "%"}, {"measurement": "Number of NCI grade 3/4/5 TEAEs", "setting": "in vivo", "value": 299}, {"measurement": "Number of TEAEs", "setting": "in vivo", "value": 1969}, {"measurement": "Number of patients with any TEAE leading to a dose interruption/delay", "setting": "in vivo", "value": "75 n (%)"}, {"measurement": "Number of patients with any TEAE leading to a dose reduction", "setting": "in vivo", "value": "0 n (%)"}, {"measurement": "Number of patients with any serious TEAE", "setting": "in vivo", "value": "89 n (%)"}, {"measurement": "Number of serious TEAEs", "setting": "in vivo", "value": 147}, {"measurement": "Treatment-emergent AEs that led to discontinuation", "setting": "in vivo", "value": "20 (6.7) n (%)"}, {"measurement": "anemia, patients", "setting": "in vivo", "value": 25, "unit": "%"}, {"measurement": "asthenia, patients", "setting": "in vivo", "value": 2, "unit": "%"}, {"measurement": "constipation, patients", "setting": "in vivo", "value": 15, "unit": "%"}, {"measurement": "decreased appetite, patients", "setting": "in vivo", "value": 15, "unit": "%"}, {"measurement": "fatigue, patients", "setting": "in vivo", "value": 17, "unit": "%"}, {"measurement": "nausea, patients", "setting": "in vivo", "value": 18, "unit": "%"}, {"measurement": "pyrexia, patients", "setting": "in vivo", "value": "less than 1%"}, {"measurement": "vomiting, patients", "setting": "in vivo", "value": 16, "unit": "%"}, {"measurement": "OS HR, cemiplimab vs individual IC chemotherapy", "setting": "[1]; [6]", "value": "HR; 0.76"}, {"measurement": "PFS HR, cemiplimab vs individual IC chemotherapy", "setting": "[1]; [6]", "value": "HR; 0.73"}, {"measurement": "OS HR, cemiplimab vs individual IC chemotherapy", "setting": "[1]; [7]", "value": "HR; 0.69"}, {"measurement": "PFS HR, cemiplimab vs individual IC chemotherapy", "setting": "[1]; [7]", "value": "HR; 0.77"}, {"measurement": "OS HR, cemiplimab vs individual IC chemotherapy", "setting": "[1]; [8]", "value": "HR; 0.71"}, {"measurement": "PFS HR, cemiplimab vs individual IC chemotherapy", "setting": "[1]; [8]", "value": "HR; 0.70"}, {"measurement": "OS HR, cemiplimab vs individual IC chemotherapy", "setting": "[1]; [9]", "value": "HR; 0.78"}, {"measurement": "PFS HR, cemiplimab vs individual IC chemotherapy", "setting": "[1]; [9]", "value": "HR; 0.90"}, {"measurement": "OS HR, cemiplimab vs individual IC chemotherapy", "setting": "[1]; [10]", "value": "HR; 0.77"}, {"measurement": "PFS HR, cemiplimab vs individual IC chemotherapy", "setting": "[1]; [10]", "value": "HR; 1.21"}, {"measurement": "OS, PFS and ORR versus each IC chemotherapy treatment", "setting": "[1]; gemcitabine, pemetrexed, vinorelbine, topotecan, irinotecan subgroups", "value": "improvements with cemiplimab versus each IC chemotherapy treatment"}, {"measurement": "Median OS (95% CI)", "setting": "[1]; [11]", "value": "10.7 (9.2-13.3) months"}, {"measurement": "Median PFS (95% CI)", "setting": "[1]; [11]", "value": "2.8 (2.6-4.3) months"}, {"measurement": "ORR", "setting": "[1]; [11]", "value": 17.6, "unit": "%"}, {"measurement": "Median OS (95% CI)", "setting": "[1]; [12]", "value": "15.8 (11.2-NE) months"}, {"measurement": "Median PFS (95% CI)", "setting": "[1]; [12]", "value": "6.9 (1.9-13.8) months"}, {"measurement": "ORR", "setting": "[1]; [12]", "value": 23.1, "unit": "%"}, {"measurement": "responding patients in dose escalation", "setting": "[2]", "value": "2/3"}, {"measurement": "ORR", "setting": "[3]; AC", "value": "12.3% and 12%"}, {"measurement": "OS Hazard Ratio (95% CI)", "setting": "[3]", "value": "0.556 (0.363, 0.853) and 0.56 (0.36-0.85)"}, {"measurement": "OS Hazard Ratio (95% CI)", "setting": "[3]; listed as cemiplimab", "value": 0.56}, {"measurement": "Estimated Event-Free Probability (PFS), % (95% CI)", "setting": "[3]; AC, 6 months", "value": "30.1 (19.3, 41.6) %"}, {"measurement": "Estimated Survival Probability, % (95% CI)", "setting": "[3]; AC, 6 months", "value": "69.6 (56.5, 79.4) %"}, {"measurement": "Estimated Event-Free Probability (PFS), % (95% CI)", "setting": "[3]; AC, 12 months", "value": "10.6 (4.4, 20.0) %"}, {"measurement": "Estimated Survival Probability, % (95% CI)", "setting": "[3]; AC, 12 months", "value": "57.4 (43.9, 68.7) %"}, {"measurement": "Estimated Event-Free Probability (PFS), % (95% CI)", "setting": "[3]; AC, 18 months", "value": "8.5 (3.0, 17.6) %"}, {"measurement": "Estimated Survival Probability, % (95% CI)", "setting": "[3]; AC, 18 months", "value": "34.2 (21.5, 47.3) %"}, {"measurement": "Estimated Event-Free Probability (PFS), % (95% CI)", "setting": "[3]; AC, 24 months", "value": "8.5 (3.0, 17.6) %"}, {"measurement": "Estimated Survival Probability, % (95% CI)", "setting": "[3]; AC, 24 months", "value": "19.5 (8.4, 34.1) %"}, {"measurement": "Median OS (95% CI)", "setting": "[3]; AC", "value": "13.3 (9.6, 17.6) months"}, {"measurement": "Median OS (95% CI)", "setting": "[3]; AC, listed as cemiplimab", "value": 13.3, "unit": "months"}, {"measurement": "Best Overall Tumor Response: Complete Response (CR)", "setting": "[3]; [13]", "value": "3 (4.6%) n (%)"}, {"measurement": "Best Overall Tumor Response: Not Evaluable (NE)", "setting": "[3]; [13]", "value": "6 (9.2%) n (%)"}, {"measurement": "Best Overall Tumor Response: Partial Response (PR)", "setting": "[3]; [13]", "value": "5 (7.7%) n (%)"}, {"measurement": "Best Overall Tumor Response: Progressive Disease (PD)", "setting": "[3]; [13]", "value": "19 (29.2%) n (%)"}, {"measurement": "OS: Number of censored patients", "setting": "[3]; [13]", "value": "24 (36.9%) n (%)"}, {"measurement": "Objective Response Rate (ORR: CR + PR)", "setting": "[3]; [13]", "value": "8 (12.3%) n (%)"}, {"measurement": "Reduced risk of death (vs. chemotherapy)", "setting": "[3]; AC", "value": 44, "unit": "%"}, {"measurement": "Reduced risk of death (vs. chemotherapy)", "setting": "[3]; AC, listed as cemiplimab", "value": 44, "unit": "%"}, {"measurement": "OS subgroup analysis, Hazard Ratio (95% CI)", "setting": "[3]; ECOG status per IWRS: 0", "value": "0.59 (0.43-0.82)"}, {"measurement": "OS subgroup analysis, Hazard Ratio (95% CI)", "setting": "[3]; ECOG status per IWRS: 1", "value": "0.74 (0.57-0.96)"}, {"measurement": "PFS: Number of events", "setting": "[3]; Adeno, cemiplimab N=65, chemo N=66", "value": "55 (84.6%) n (%)"}, {"measurement": "PFS Hazard Ratio (95% CI)", "setting": "[3]; Adeno", "value": "0.849 (0.574, 1.255)"}, {"measurement": "Median PFS in month (95% CI)", "setting": "[3]; SCC", "value": "2.8 (2.6, 4.0) month"}, {"measurement": "PFS: Number of censored patients", "setting": "[3]; SCC", "value": "53 (22.2%) n (%)"}, {"measurement": "PFS: Number of deaths", "setting": "[3]; SCC", "value": "25 (10.5%) n (%)"}, {"measurement": "PFS: Progressive Disease", "setting": "[3]; SCC", "value": "161 (67.4%) n (%)"}, {"measurement": "Reduced risk of progression (vs. chemotherapy)", "setting": "[3]; SCC", "value": 31, "unit": "%"}, {"measurement": "PFS Hazard Ratio (95% CI)", "setting": "[3]; SCC", "value": "0.686 (0.559, 0.843)"}, {"measurement": "Median PFS in month (95% CI)", "setting": "[3]; total population", "value": "2.8 (2.6, 3.9) month"}, {"measurement": "PFS: Number of censored patients", "setting": "[3]; total population", "value": "63 (20.7%) n (%)"}, {"measurement": "PFS: Number of deaths", "setting": "[3]; total population", "value": "31 (10.2%) n (%)"}, {"measurement": "PFS: Progressive Disease", "setting": "[3]; total population", "value": "210 (69.1%) n (%)"}, {"measurement": "Reduced risk of progression (vs. chemotherapy)", "setting": "[3]; total population", "value": 28, "unit": "%"}, {"measurement": "PFS: Number of events", "setting": "[3]; total population, N=304 per arm", "value": "241 (79.3%) n (%)"}]}]}
